{"source": "patent US9029389B2", "about": "(Institut Pasteur Korea, priority 2011, dated 2015)", "data": [{"molecular_target": "T1, Human 5-lipoxygenase (Homo sapiens, UniProt P09917)", "T1 construct": "purchased Cayman 60402; host or cells: insect cells", "T1 sequence (P09917 1-674)": "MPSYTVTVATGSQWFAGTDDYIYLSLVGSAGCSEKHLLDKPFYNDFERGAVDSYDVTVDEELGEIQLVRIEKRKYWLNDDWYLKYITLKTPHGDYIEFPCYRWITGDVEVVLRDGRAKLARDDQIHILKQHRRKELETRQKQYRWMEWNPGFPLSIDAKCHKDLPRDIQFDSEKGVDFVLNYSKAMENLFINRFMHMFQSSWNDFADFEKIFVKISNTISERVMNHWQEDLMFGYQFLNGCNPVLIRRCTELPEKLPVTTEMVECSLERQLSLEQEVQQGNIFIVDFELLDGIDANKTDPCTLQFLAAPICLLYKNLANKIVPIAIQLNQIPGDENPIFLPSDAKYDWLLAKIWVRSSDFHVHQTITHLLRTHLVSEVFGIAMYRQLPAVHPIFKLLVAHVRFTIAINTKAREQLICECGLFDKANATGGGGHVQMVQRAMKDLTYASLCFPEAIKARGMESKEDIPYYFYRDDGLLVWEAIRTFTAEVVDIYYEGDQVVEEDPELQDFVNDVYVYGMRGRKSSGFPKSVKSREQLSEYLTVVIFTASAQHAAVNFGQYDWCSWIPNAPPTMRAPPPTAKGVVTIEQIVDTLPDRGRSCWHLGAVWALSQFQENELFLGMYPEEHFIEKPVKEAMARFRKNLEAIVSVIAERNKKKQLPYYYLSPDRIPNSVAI", "experiment": "Activity of compounds against 5-LO enzyme (LTB4 measurement and/or fluorescence method)", "format": "biochemical", "details": "5-LO, single concentration of 10 uM in duplicate", "procedure,_shortened": "(§1)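 Two read-outs: LTB4 measured by EIA and/or LC/MS/MS with LTB4-d4 standard after 15 min RT compound preincubation with insect-cell 5-LO and a 5 min 37 °C reaction on 3 uM arachidonic acid (0.1 mM ATP, pH 7.4). The room-temperature fluorescence format used 20 uM H2DCFDA, 100 uM ATP, 3 uM arachidonic acid, 5 min; IC50 from 6/11-point curves.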", "units": {"inhibition at 10 µM": "%"}, "values": [{"smiles": "CCc1nc2ccc(Cl)cn2c1C(=O)NCc1ccc(-c2ccc(C#N)cc2C)cc1", "note": "[compound 104, 6-Chloro-N-((4′-cyano-2′-methylbiphenyl-4-yl)methyl)-2-ethylimidazo[1,2-a]pyridine-3-carboxamide]", "inhibition at 10 µM": "40 to 69"}, {"smiles": "CCc1nc2ccc(Cl)cn2c1C(=O)NCc1ccc(N2CCN(C)CC2)cc1", "note": "[compound 105, 6-Chloro-2-ethyl-N-(4-(4-methylpiperazin-1-yl)benzyl)imidazo[1,2-a]pyridine-3-carboxamide]", "inhibition at 10 µM": "< 40"}, {"smiles": "CCc1nc2cc(Cl)ccn2c1C(=O)NCc1ccc(-c2ccccc2C#N)cc1", "note": "[compound 106, 7-Chloro-N-((2′-cyanobiphenyl-4-yl)methyl)-2-ethylimidazo[1,2-a]pyridine-3-carboxamide]", "inhibition at 10 µM": "40 to 69"}, {"smiles": "CCc1nc2cc(Cl)ccn2c1C(=O)NCc1ccc(OC(F)(F)F)cc1", "note": "[compound 107, 7-Chloro-2-ethyl-N-(4-(trifluoromethoxy)benzyl)imidazo[1,2-a]pyridine-3-carboxamide]", "inhibition at 10 µM": "40 to 69"}, {"smiles": "CCc1nc2cc(Cl)ccn2c1C(=O)NCc1ccc(N2CCN(C)CC2)cc1", "note": "[compound 108, 7-Chloro-2-ethyl-N-(4-(4-methylpiperazin-1-yl)benzyl)imidazo[1,2-a]pyridine-3-carboxamide]", "inhibition at 10 µM": "< 40"}, {"smiles": "CCc1nc2cc(Cl)ccn2c1C(=O)NCc1ccc(-c2ccc(C#N)cc2C)cc1", "note": "[compound 109, 7-Chloro-N-((4′-cyano-2′-methylbiphenyl-4-yl)methyl)-2-ethylimidazo[1,2-a]pyridine-3-carboxamide]", "inhibition at 10 µM": "40 to 69"}, {"smiles": "CCCCCNc1ccc(CNC(=O)c2c(CC)nc3cc(Cl)ccn23)cc1", "note": "[compound 110, 7-Chloro-2-ethyl-N-(4-(pentylamino)benzyl)imidazo[1,2-a]pyridine-3-carboxamide]", "inhibition at 10 µM": "> 69"}, {"smiles": "CCc1nc2cc(Cl)ccn2c1C(=O)NCc1ccc(-c2ccc(C(F)(F)F)cc2)cc1", "note": "[compound 111, 7-Chloro-2-ethyl-N-((4′-(trifluoromethyl)biphenyl-4-yl)methyl)imidazo[1,2-a]pyridine-3-carboxamide]", "inhibition at 10 µM": "< 40"}, {"smiles": "CCc1nc2cc(Cl)ccn2c1C(=O)NCc1ccc(-c2ccc(OC(F)(F)F)cc2)cc1", "note": "[compound 112, 7-Chloro-2-ethyl-N-((4′-(trifluoromethoxy)biphenyl-4-yl)methyl)imidazo[1,2-a]pyridine-3-carboxamide]", "inhibition at 10 µM": "40 to 69"}, {"smiles": "CCc1nc2cc(Cl)ccn2c1C(=O)NCc1ccc(-c2ccc(OC)cc2)cc1", "note": "[compound 113, 7-Chloro-2-ethyl-N-((4′-methoxybiphenyl-4-yl)methyl)imidazo[1,2-a]pyridine-3-carboxamide]", "inhibition at 10 µM": "40 to 69"}, {"smiles": "CCc1nc2cc(Cl)ccn2c1C(=O)NCc1ccc(-c2ccc(C(C)(C)C)cc2)cc1", "note": "[compound 114, N-((4′-tert-Butylbiphenyl-4-yl)methyl)-7-chloro-2-ethylimidazo[1,2-a]pyridine-3-carboxamide]", "inhibition at 10 µM": "40 to 69"}, {"smiles": "CCc1nc2cc(Cl)ccn2c1NC(=O)c1ccc(-c2ccccc2)cc1", "note": "[compound 115, N-(7-Chloro-2-ethylimidazo[1,2-a]pyridin-3-yl)biphenyl-4-carboxamide]", "inhibition at 10 µM": "40 to 69"}, {"smiles": "CCc1nc2cc(Cl)ccn2c1NC(=O)Cc1ccc(-c2ccccc2)cc1", "note": "[compound 116, 2-(Biphenyl-4-yl)-N-(7-chloro-2-ethylimidazo[1,2-a]pyridin-3-yl)acetamide]", "inhibition at 10 µM": "40 to 69"}, {"smiles": "CCc1nc2cc(Cl)ccn2c1C(=O)NCc1ccc(-n2cccc2)cc1", "note": "[compound 117, N-(4-(1H-Pyrrol-1-yl)benzyl)-7-chloro-2-ethylimidazo[1,2-a]pyridine-3-carboxamide]", "inhibition at 10 µM": "< 40"}, {"smiles": "CCc1nc2cc(OC)ccn2c1C(=O)NCc1ccc(OC(F)(F)F)cc1", "note": "[compound 118, 2-Ethyl-7-methoxy-N-(4-(trifluoromethoxy)benzyl)imidazo[1,2-a]pyridine-3-carboxamide]", "inhibition at 10 µM": "< 40"}, {"smiles": "CCc1nc2cc(Cl)ccn2c1C(=O)NCc1ccc(-c2ccc(OC)cn2)cc1", "note": "[compound 119, 7-Chloro-2-ethyl-N-(4-(5-methoxypyridin-2-yl)benzyl)imidazo[1,2-a]pyridine-3-carboxamide]", "inhibition at 10 µM": "40 to 69"}, {"smiles": "CCc1nc2ccc(F)cn2c1C(=O)NCc1ccc(OC(F)(F)F)cc1", "note": "[compound 120, 2-Ethyl-6-fluoro-N-(4-(trifluoromethoxy)benzyl)imidazo[1,2-a]pyridine-3-carboxamide]", "inhibition at 10 µM": "40 to 69"}, {"smiles": "CCc1nc2ccc(C(F)(F)F)cn2c1C(=O)NCc1ccc(OC(F)(F)F)cc1", "note": "[compound 121, 2-Ethyl-N-(4-(trifluoromethoxy)benzyl)-6-(trifluoromethyl)imidazo[1,2-a]pyridine-3-carboxamide]", "inhibition at 10 µM": "40 to 69"}, {"smiles": "CCc1nc2ccc(Cl)cn2c1C(=O)NCc1ccc(N2CCC(Oc3ccc(OC(F)(F)F)cc3)CC2)cc1", "note": "[compound 122, 6-Chloro-2-ethyl-N-(4-(4-(4-(trifluoromethoxy)phenoxy)piperidin-1-yl)benzyl)imidazo[1,2-a]pyridine-3-carboxamide]", "inhibition at 10 µM": "40 to 69"}, {"smiles": "CCc1nc2cc(Cl)ccn2c1C(=O)NCc1ccc(N2CCC(Oc3ccc(OC(F)(F)F)cc3)CC2)cc1", "note": "[compound 123, 7-Chloro-2-ethyl-N-(4-(4-(4-(trifluoromethoxy)phenoxy)piperidin-1-yl)benzyl)imidazo[1,2-a]pyridine-3-carboxamide]", "inhibition at 10 µM": "> 69"}, {"smiles": "CCc1nc2ccc(C(F)(F)F)cn2c1C(=O)NCc1ccc(N2CCC(Oc3ccc(OC(F)(F)F)cc3)CC2)cc1", "note": "[compound 124, 2-Ethyl-N-(4-(4-(4-(trifluoromethoxy)phenoxy)piperidin-1-yl)benzyl)-6-(trifluoromethyl)imidazo[1,2-a]pyridine-3-carboxamide]", "inhibition at 10 µM": "> 69"}, {"smiles": "CCc1nc2cc(Cl)ccn2c1C(=O)NCc1ccc(Oc2ccc(F)cc2)cc1", "note": "[compound 129, 7-Chloro-2-ethyl-N-(4-(4-fluorophenoxy)benzyl)imidazo[1,2-a]pyridine-3-carboxamide]", "inhibition at 10 µM": "40 to 69"}, {"smiles": "CCc1nc2ccc(Cl)cn2c1C(=O)NCc1ccc(N2CCN(Cc3ccc(F)cc3)CC2)cc1", "note": "[compound 130, 6-Chloro-2-ethyl-N-(4-(4-(4-fluorobenzyl)piperazin-1-yl)benzyl)imidazo[1,2-a]pyridine-3-carboxamide]", "inhibition at 10 µM": "> 69"}, {"smiles": "CCc1nc2ccc(Cl)cn2c1C(=O)NCc1ccc(Oc2ccc(OC(F)(F)F)cc2)cc1", "note": "[compound 131, 6-Chloro-2-ethyl-N-(4-(4-(trifluoromethoxy)phenoxy)benzyl)imidazo[1,2-a]pyridine-3-carboxamide]", "inhibition at 10 µM": "40 to 69"}, {"smiles": "CCc1nc2ccc(Cl)cn2c1C(=O)NCc1ccn(-c2ccc(OC(F)(F)F)cc2)n1", "note": "[compound 132, 6-Chloro-2-ethyl-N-((1-(4-(trifluoromethoxy)phenyl)-1H-pyrazol-3-yl)methyl)imidazo[1,2-a]pyridine-3-carboxamide]", "inhibition at 10 µM": "40 to 69"}, {"smiles": "CCc1nc2cc(Cl)ccn2c1C(=O)NCc1ccn(-c2ccc(OC(F)(F)F)cc2)n1", "note": "[compound 133, 7-Chloro-2-ethyl-N-((1-(4-(trifluoromethoxy)phenyl)-1H-pyrazol-3-yl)methyl)imidazo[1,2-a]pyridine-3-carboxamide]", "inhibition at 10 µM": "40 to 69"}, {"smiles": "CCc1nc2ccc(Cl)cn2c1CNc1ccc(OC(F)(F)F)cc1", "note": "[compound 144, N-((6-Chloro-2-ethylimidazo[1,2-a]pyridin-3-yl)methyl)-4-(trifluoromethoxy)aniline]", "inhibition at 10 µM": "40 to 69"}, {"smiles": "CCc1nc2ccc(Cl)cn2c1C(=O)NCC1CCCc2c1cnn2-c1ccc(OC(F)(F)F)cc1", "note": "(stereo not drawn) [compound 147, 6-Chloro-2-ethyl-N-((1-(4-(trifluoromethoxy)phenyl)-4,5,6,7-tetrahydro-1H-indazol-4-yl)methyl)imidazo[1,2-a]pyridine-3-carboxamide]", "inhibition at 10 µM": "40 to 69"}, {"smiles": "CCc1nc2ccc(Cl)cn2c1C(=O)NCc1ccc(N2CCN(c3ccc(F)cc3)CC2)cc1", "note": "[compound 148, 6-Chloro-2-ethyl-N-(4-(4-(4-fluorophenyl)piperazin-1-yl)benzyl)imidazo[1,2-a]pyridine-3-carboxamide]", "inhibition at 10 µM": "40 to 69"}, {"smiles": "CCc1nc2ccc(Cl)cn2c1C(=O)NCC1CCCc2c1cnn2-c1ccc(F)cc1", "note": "(stereo not drawn) [compound 149, 6-Chloro-2-ethyl-N-((1-(4-fluorophenyl)-4,5,6,7-tetrahydro-1H-indazol-4-yl)methyl)imidazo[1,2-a]pyridine-3-carboxamide]", "inhibition at 10 µM": "40 to 69"}, {"smiles": "CCc1nc2cc([N+](=O)[O-])ccn2c1C(=O)NCc1ccc(OC(F)(F)F)cc1", "note": "[compound 150, 2-Ethyl-7-nitro-N-(4-(trifluoromethoxy)benzyl)imidazo[1,2-a]pyridine-3-carboxamide]", "inhibition at 10 µM": "40 to 69"}]}, {"molecular_target": "T1, Human 5-lipoxygenase", "experiment": "Activity of compounds against 5-LO enzyme (LTB4 measurement and/or fluorescence method)", "format": "biochemical", "details": "6 or 11 point dose response in duplicate", "procedure,_shortened": "as §1", "units": {"IC50": "µM"}, "values": [{"smiles": "CCCCCNc1ccc(CNC(=O)c2c(CC)nc3cc(Cl)ccn23)cc1", "note": "[compound 110, 7-Chloro-2-ethyl-N-(4-(pentylamino)benzyl)imidazo[1,2-a]pyridine-3-carboxamide]", "IC50": "> 20"}, {"smiles": "CCc1nc2cc(Cl)ccn2c1C(=O)NCc1ccc(N2CCC(Oc3ccc(OC(F)(F)F)cc3)CC2)cc1", "note": "[compound 123, 7-Chloro-2-ethyl-N-(4-(4-(4-(trifluoromethoxy)phenoxy)piperidin-1-yl)benzyl)imidazo[1,2-a]pyridine-3-carboxamide]", "IC50": "> 20"}, {"smiles": "CCc1nc2ccc(C(F)(F)F)cn2c1C(=O)NCc1ccc(N2CCC(Oc3ccc(OC(F)(F)F)cc3)CC2)cc1", "note": "[compound 124, 2-Ethyl-N-(4-(4-(4-(trifluoromethoxy)phenoxy)piperidin-1-yl)benzyl)-6-(trifluoromethyl)imidazo[1,2-a]pyridine-3-carboxamide]", "IC50": "1 to 20"}, {"smiles": "CCc1nc2ccc(Cl)cn2c1C(=O)NCc1ccc(N2CCN(Cc3ccc(F)cc3)CC2)cc1", "note": "[compound 130, 6-Chloro-2-ethyl-N-(4-(4-(4-fluorobenzyl)piperazin-1-yl)benzyl)imidazo[1,2-a]pyridine-3-carboxamide]", "IC50": "1 to 20"}, {"smiles": "CCc1nc2ccc(Cl)cn2c1C(=O)NCc1ccc(N2CCN(c3ccc(F)cc3)CC2)cc1", "note": "[compound 148, 6-Chloro-2-ethyl-N-(4-(4-(4-fluorophenyl)piperazin-1-yl)benzyl)imidazo[1,2-a]pyridine-3-carboxamide]", "IC50": "1 to 20"}]}]}
